One assay deals with K562. As to the kind of experiment: Cell proliferation assay using SRB, K562. The note with it: Homo sapiens, 48 hours treatment. The assay is classed as cell-based. The procedure: Human leukemia cell lines CCRF-CEM, K562, MOLT-4, RPMI-8226 and SR, purchased from the National Cancer Institute (NCI), were cultured in RPMI 1640 medium supplemented with 5%(v/v) fetal Bovine […] and 100 units/ml penicillin and 100 units/ml streptomycin in a humidified 5% CO2 atmosphere at 37° C. • 6.1.2 Reagents and Antibodies
All 5 human leukemia cells were screened by the cell proliferation assay using SRB to quantitative cell protein mass following cucurbitacin B treatment. The experiments were repeated in triplicate. Appropriate number of cells (depends on the doubling time of cells) were seeded into a 96-well tissue culture plate and growth in the indicated medium in presence of different dosages of cucurbitacin B for 2 days. Afterwards 25 μl 80%TCA reagent was added into each well to fix the cells and the plates were incubated at 4° C. at least for 1 hour. Then the plates were washed with tap water and air dried. […] The plates were air dried and dissolved by 100 μl 1 OmMTrizma-base solution and the absorbance was measured at 515 nm using FLUOstar OPTIMA equipment. • 6.1.4 Flow Cytometry for Apoptosis Analysis
Appropriate number of cell density were seeded into a 96 well culture plate and treated with different doses of cucurbitacin B for 2 days. The growth inhibition effects of cucurbitacin B on the cells were detected using SRB.

The subject of assay [1] is HepG2(liver), HT29(colon) and MCF-7(breast). The assay is described as follows: MTT cell cytotoxicity assay, three cancer cell lines. The format is cell-based. The note with it: Homo sapiens; 48 hours; range over the three cell lines. The procedure: Three human cancer cell lines (HepG2(liver), HT29(colon) and MCF-7(breast)) were purchased from American Type Culture Collection (ATCC, Manassas, Va., USA). The cells were cultured in RPMI 1640 medium supplemented with 5% (v/v) fetal bovine serum (FBS) and 100 units/ml penicillin and streptomycin (Invitrogen Life Technologies) in a humidified 5% CO2 atmosphere at 37° C.
(§1) The cytotoxic effect of CuB and CuD on these three cancer cell lines were determined using MTT (3-[4,5-dimethylthiazol-2-yl]-2,5-diphenyl tetrazolium bromide) labeled cell cytotoxicity assay. A total of 1×10^4 cells were seeded into a 96-well plate for 24 hours prior to cucurbitacin B (CuB) or cucurbitacin D (CuD) treatment. They were then treated with different dosages of CuB/CuD for 48 hours. After the treatment, 20 μl of MTT (5 mg/ml) was added to each well and incubated for 4 hrs. Then the medium was discarded and 100 μl of dimethyl sulfoxide was added. The absorbance at 570 nm was then measured by using FLUOstar OPTIMA equipment (BMG, LABTECH GmbH, Germany). The percentage of inhibition against different dosages of CuB/CuD were plotted using the Prism software and the 50% inhibition concentration (IC50) were obtained.

Assay [2] concerns Human GBM cell lines U87, T98G, U118, U343, U373. The assay is described as follows: MTT cell cytotoxicity assay, glioblastoma multiforme cell lines. The assay is classed as cell-based. The note with it: 48 hours, range over the cell lines. The procedure: Human GBM cell lines U87, T98G, U118, U343, U373 cell lines were maintained in Dulbecco's modified Eagle's medium (Gibco, BRL) with 10% fetal calf serum (Gemini Bio-Products, Calabasas, Calif., USA), 10 U/ml penicillin G and […] streptomycin. They were all incubated at 37° C. in 5% CO2 atmosphere.
The cytotoxic effect of CuB on these cancer cell lines were determined using MTT (3-[4,5-dimethylthiazol-2-yl]-2,5-diphenyl tetrazolium bromide) labeled cell cytotoxicity assay. A total of 1×10^4 cells were seeded into a 96-well plate for 24 hours prior to cucurbitacin B (CuB) treatment. They were then treated with different dosages of CuB for 48 hours. After the treatment, 20 μl of MTT (5 mg/ml) was added to each well and incubated for 4 hrs. Then the medium was discarded and 100 μl of dimethyl sulfoxide was added. The absorbance at 570 nm was then measured by a microplate reader and the 50% inhibition concentration (IC50) were obtained. Results for untreated control cells were set as 100%, with remaining data shown as a percentage of control. Data represented the mean±standard error of triplicate samples.

In the next assay the test system is HL60 and U937 cells. The assay is described as follows: Cytoskeletal staining (F-actin, confocal). The following applies: two days. The format is cell-based, human. The procedure:
HL60 and U937 cells were incubated with cucurbitacin B for two days at 37° C. Then the cells were centrifuged and fixed in 4% paraformaldehyde, permeabilized with 0.1% Triton X-100 in PBS, and incubated with FITC-conjugated anti-β-tubulin antibody, followed by rhodamine-phalloidin to detect filamentous F-actin. Confocal images were collected on a Leica microscope. […] Untreated HL 60 and U937 cells were depicted in FIGS. 15A and 15C, and cultured HL 60 and U937 cells were depicted in FIGS. 15B and 15D. • 6.2.8 Cucurbitacin B and Cucurbitacin D Inhibited Stat3 Activation and Stimulated Erk and Hsp27 Activation in HepG2, HT29 and MCF-7 Cells

For a further assay, the system named is HepG2. The assay is described as follows: Hollow fiber assay, HepG2. The following applies: 0.2 mg/kg, i.p., s.c. and p.o., up to 14 days. The assay is classed as in vivo, nude mice. The procedure: The hollow fiber assay (HFA) was developed by the NCI as a high-throughput, preliminary in vivo screening assay for the evaluation of anti-cancer agents. Human liver cancer cell lines HepG2 and HepG2-resistant (HepG2-R) were in vitro cultured inside hollow fibers for a short term (48 hours), followed by in vivo implantation at s.c. sites of the nude mice. Mice were treated with negative control (0.5% CMC), positive control (10 mg/kg 5-Fluorouracil) and cucurbitacin B (0.2 mg/kg) for up to 14 days. Then the fibers were excised and analyzed for cell viability by MTT assay. The efficacies of cucurbitacin B against HepG2 and HepG2-R were expressed as the percentage of the results obtained in the negative control group.

The subject of assay [3] is human pancreatic cancer cell line SW. As to the kind of experiment: MTT cell cytotoxicity assay, SW pancreatic cancer cell line. The assay is classed as cell-based. The following applies: 48 hours. The procedure:
A human pancreatic cancer cell line SW was purchased from Institute of Biochemistry and Cell Biology, Shanghai Institutes for Biological Sciences, Chinese Academy of Sciences (SIBCB, CAS, China). SW cell was grown in RPMI 1640 medium supplemented with 10% FBS and maintained in a humidified 5% CO2 atmosphere at 37° C. and the culture medium was changed once in 2 days.
as §1, with “CuB” for “CuB and CuD”, “SW” for “these three cancer”, “was” for “lines were”, “(CuB)” for “(CuB) or cucurbitacin D (CuD)”, “CuB” for “CuB/CuD”, “by” for “by using”
A general note: Formazan colour is commonly taken as a measure of viable cells.

Structures are written as SMILES. Values after ≈ are worked out from the molar mass of the structure shown.

Broadly, the GI50 is the concentration at which growth is held to half of that of the control. A higher GI50 goes with lower sensitivity of the cells. The term IC50 denotes the concentration needed to halve the response being measured. A lower IC50 goes with greater potency in that assay. Consider `CC(=O)OC(C)(C)/C=C/C(=O)[C@](C)(O)C1[C@H](O)C[C@@]2(C)C3CC=C4C(C[C@H](O)C(=O)C4(C)C)[C@]3(C)C(=O)C[C@]12C` (stereo partly drawn) [cucurbitacin B], for which the results for the GI50 (in the assay on K562; in assay [2]) were 15.6 nM and 50 to 100 nM, respectively. Besides, the IC50 in assay [1] is 0.31 to 1.6 µg/mL (≈ 0.555 to 2.86 µM); in assay [3], about 274 nM. The “effect on cytoskeletal network (F-actin)” value with HL60 and U937 cells was “rapid and improper polymerization of the F-actin network”. Besides, in the assay with HepG2, the “cell growth in hollow fibers” value is “potently inhibited”.
